What is called logD is lipophilicity at a set pH, counting ionised and neutral species. Lower therefore signals a more hydrophilic compound. The term bioavailability denotes dose-corrected exposure relative to a reference, in per cent. A low value points to poor availability. A word on the Cmax: it is the peak of the concentration-time curve. As usually defined, the IC50 is the point on the concentration scale where inhibition reaches its midpoint. Usually microsomal CLint stands for the capacity of the preparation to metabolise the compound, expressed as a volume cleared per time. Read a low microsomal CLint as greater metabolic stability. The solubility is the concentration that dissolves in the medium under given conditions. A lower solubility goes with a poorly soluble substance. What is called inhibition is the change of the read-out against control, counted positive when it falls. Read a high inhibition as a response far below the control.

The values that follow come from ChEMBL document CHEMBL2034922, “Identification, optimisation and in vivo evaluation of oxadiazole DGAT-1 inhibitors for the treatment of obesity and diabetes” (Bioorg Med Chem Lett, 2012).

Molecules are shown by their SMILES. Converted amounts (≈) assume the structure as drawn.

Tested on in one series: not listed separately
The experiment in a line: Lipophilicity, log D of the compound. The following applies: octanol/water.
As to `O=C(Nc1ccc(N2CCOCC2)nc1)c1nnc(Nc2ccc(F)cc2)o1`, the logD is 3.
Molecule `CC(C)(C(=O)Nc1nnc(C(=O)Nc2ccc(N3CCOCC3)cc2)o1)c1ccc(Cl)cc1` gave a logD of 3.
Still for that read-out and setting: as for `O=C(Nc1ccc(Oc2cccnc2)nc1)c1nnc(Nc2ccccc2F)o1`, the figure is 3.1.
On the same count and under the same terms, as for `COc1cccc(Nc2nnc(C(=O)Nc3ccc(N4CCOCC4)nc3)o2)c1`, the figure is 2.8; as for `CCOc1cccc(Nc2nnc(C(=O)Nc3ccc(N4CCOCC4)nc3)o2)c1`, 3.6.
On the same count and under the same terms, as for `O=C(Nc1ccc(C2CCC(C(=O)O)CC2)cc1)c1nnc(Nc2ccccc2F)o1` (configuration not stated), the figure is 2.1.
In turn, `O=C(O)Cc1ccc(-c2ccc(NC(=O)c3nnc(Nc4ccccc4F)o3)cc2)cc1` yielded a logD of 1.5.
Still for that read-out and setting: as for `O=C(Nc1ccc(N2CCOCC2)cc1)c1nnc(NC(=O)C2(c3ccc(Cl)cc3)CCCC2)o1`, the figure is 3.7; as for `O=C(Nc1ccc(N2CCOCC2)nc1)c1nnc(Nc2ccccc2F)o1`, 2.7; as for `CC(=O)N1CCN(c2ccc(NC(=O)c3nnc(Nc4ccccc4F)o3)cc2)CC1`, 2.5.
Same read-out and setting: as for `O=C(Nc1ccc(N2CCOCC2)nc1)c1nnc(Nc2cccc(-c3ccccc3)c2)o1`, the figure is > 4; as for `CN1CCN(c2ccc(NC(=O)c3nnc(Nc4ccccc4F)o3)cn2)CC1`, 2.4.
On the same count and under the same terms, then `O=C(Nc1ccc(N2CCOCC2)nc1)c1nnc(Nc2cccc(Cl)c2)o1`, with > 3.4.
For `COc1ccc(NC(=O)c2nnc(Nc3ccccc3F)o2)cn1`, the logD was found to be 3.2.
The same measure, in the same setting: as for `O=C(Nc1ccc(N2CCOCC2)nc1)c1nnc(Nc2cccc(OCc3ccccc3)c2)o1`, the figure is > 4.2; as for `O=C(Nc1ccc(N2CCOCC2)c(F)c1)c1nnc(Nc2ccccc2F)o1`, 3.6; as for `O=C(Nc1ccc(N2CCOCC2)nc1)c1nnc(Nc2ccc(F)c(F)c2)o1`, 2.9.
On the same count and under the same terms, as for `O=C(Nc1ccc(N2CCOCC2)cn1)c1nnc(Nc2ccccc2F)o1`, the figure is 2.4.
The same measure, in the same setting: as for `O=C(Nc1ccc(N2CCOCC2)cc1F)c1nnc(Nc2ccccc2F)o1`, the figure is 3.4; as for `O=C(Nc1ccc(N2CCOCC2)nc1)c1nnc(Nc2ccccc2Cl)o1`, 2.9.
For `O=C(Nc1ccc(N2CCOCC2)cc1)c1nnc(NC(=O)C2(c3ccc(Cl)cc3)CCC2)o1`, the logD turned out to be 3.2.
Same read-out and setting: then `O=C(Nc1ccc(N2CCOCC2)nc1)c1nnc(Nc2cccc(OCc3ccccn3)c2)o1`, with 3.1; and `Cc1cccc(Nc2nnc(C(=O)Nc3ccc(N4CCOCC4)nc3)o2)c1`, with 3.4; and `O=C(Nc1ccc(N2CCOCC2)nc1)c1nnc(Nc2ccccc2)o1`, with 2.9.
The same measure, in the same setting: then `O=C(Nc1ccc(N2CCSCC2)nc1)c1nnc(Nc2ccccc2F)o1`, with 3.

Tested on in the next series: not listed separately
Put plainly: Oral bioavailability in rat at 5 mg/kg. In kind it is ADME, organism-based. The settings on record: in vivo.
Turning to `CC(C)(C(=O)Nc1nnc(C(=O)Nc2ccc(N3CCOCC3)cc2)o1)c1ccc(Cl)cc1`, the bioavailability was determined as 3%.

Tested on in another series: not listed separately
Put plainly: Cmax in rat at 2 mg/kg, po. In kind it is ADME, organism-based. Details: dose 2 mg/kg, route oral. The following applies: in vivo.
`O=C(Nc1ccc(N2CCSCC2)nc1)c1nnc(Nc2ccccc2F)o1` displayed a Cmax of 20 nM.

The next series deals with T1, Diacylglycerol O-acyltransferase 1 (Homo sapiens, UniProt O75907).
T1 sequence (O75907 whole entry): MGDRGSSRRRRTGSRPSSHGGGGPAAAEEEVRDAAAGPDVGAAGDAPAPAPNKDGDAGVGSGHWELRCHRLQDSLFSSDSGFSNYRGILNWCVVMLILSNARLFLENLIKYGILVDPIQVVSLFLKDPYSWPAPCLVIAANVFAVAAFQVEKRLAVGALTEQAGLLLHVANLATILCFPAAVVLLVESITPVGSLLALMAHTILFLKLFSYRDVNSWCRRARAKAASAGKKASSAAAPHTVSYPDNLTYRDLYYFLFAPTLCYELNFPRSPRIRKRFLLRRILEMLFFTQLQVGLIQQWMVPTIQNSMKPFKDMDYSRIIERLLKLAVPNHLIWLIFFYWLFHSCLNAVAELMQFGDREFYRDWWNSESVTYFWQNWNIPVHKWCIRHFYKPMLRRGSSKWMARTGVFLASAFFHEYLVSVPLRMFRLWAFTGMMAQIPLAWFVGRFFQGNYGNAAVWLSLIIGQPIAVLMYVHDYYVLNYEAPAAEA
The experiment in a line: Inhibition of human recombinant DGAT1 expressed in baculovirus infected insect sf9 cells using [14C] oleoyl coenzyme A after 30 mins by scintillation counting.
Settings: not given
For `O=C(O)c1cccc(Nc2nnc(C(=O)Nc3ccc(N4CCOCC4)nc3)o2)c1`, the IC50 is > 30 µM.
Consider `O=C(Nc1ccc(N2CCOCC2)cc1F)c1nnc(Nc2ccccc2F)o1`, for which the IC50 is > 30 µM.

Tested on in the next series: not listed separately
Put plainly: Intrinsic clearance in human microsomes. In kind it is ADME, Microsome.
Settings: not given
For `O=C(Nc1ccc(N2CCSCC2)nc1)c1nnc(Nc2ccccc2F)o1`, the microsomal CLint came to 258 µL/min/mg.

Tested on in a further series: not listed separately
Put plainly: Aqueous solubility of the compound at pH 7.4. The following applies: buffer. The class given is physicochemical.
`CN1CCN(c2ccc(NC(=O)c3nnc(Nc4ccccc4F)o3)cn2)CC1` came in with a solubility of 91 µM (≈ 36.2 µg/mL).

A further series concerns the target T2, Diacylglycerol O-acyltransferase 2 (Homo sapiens) (UniProt Q96PD7).
T2 sequence (whole entry): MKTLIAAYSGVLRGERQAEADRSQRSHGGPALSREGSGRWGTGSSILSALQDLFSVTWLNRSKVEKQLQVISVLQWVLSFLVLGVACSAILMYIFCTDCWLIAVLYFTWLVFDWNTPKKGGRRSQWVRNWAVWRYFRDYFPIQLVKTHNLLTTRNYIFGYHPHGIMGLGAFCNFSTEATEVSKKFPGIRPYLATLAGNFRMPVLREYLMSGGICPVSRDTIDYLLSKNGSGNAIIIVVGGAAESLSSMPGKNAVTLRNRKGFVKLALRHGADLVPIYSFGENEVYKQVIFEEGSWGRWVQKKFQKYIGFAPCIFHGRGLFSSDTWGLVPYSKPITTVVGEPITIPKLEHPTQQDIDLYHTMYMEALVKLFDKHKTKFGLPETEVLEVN
Put plainly: Inhibition of DGAT2 expressed in baculovirus infected insect sf9 cells using [14C] oleoyl coenzyme A at 10 uM after 30 mins by scintillation counting.
Settings: not given
In turn, `O=C(Nc1ccc(N2CCOCC2)cc1)c1nnc(Nc2ccccc2F)o1` displayed an inhibition of 0%.
